Assay results as given in PMC10507085, “Pharmacological inhibition of TBK1/IKKε blunts immunopathology in a murine model of SARS-CoV-2 infection” (Nature Communications, 2023).

Tests used:
Test in all cases: biochemical
Parameters in all cases: KINOMEscan competition binding, DNA-tagged kinase against immobilised ligand, qPCR read-out
[1] = biological target: T1, RPS6KA4(Kin.Dom.2-C-terminal) (Homo sapiens, UniProt O75676); details: read-out: Percent Control
T1 construct: Kin.Dom.2 C-terminal

[2] = biological target: WNK1 (Homo sapiens, UniProt Q9H4A3); details: read-out: Percent Control
[3] = biological target: MAP3K14 (Homo sapiens, UniProt Q99558); details: read-out: Percent Control
Sequence of MAP3K14 (Q99558 whole entry): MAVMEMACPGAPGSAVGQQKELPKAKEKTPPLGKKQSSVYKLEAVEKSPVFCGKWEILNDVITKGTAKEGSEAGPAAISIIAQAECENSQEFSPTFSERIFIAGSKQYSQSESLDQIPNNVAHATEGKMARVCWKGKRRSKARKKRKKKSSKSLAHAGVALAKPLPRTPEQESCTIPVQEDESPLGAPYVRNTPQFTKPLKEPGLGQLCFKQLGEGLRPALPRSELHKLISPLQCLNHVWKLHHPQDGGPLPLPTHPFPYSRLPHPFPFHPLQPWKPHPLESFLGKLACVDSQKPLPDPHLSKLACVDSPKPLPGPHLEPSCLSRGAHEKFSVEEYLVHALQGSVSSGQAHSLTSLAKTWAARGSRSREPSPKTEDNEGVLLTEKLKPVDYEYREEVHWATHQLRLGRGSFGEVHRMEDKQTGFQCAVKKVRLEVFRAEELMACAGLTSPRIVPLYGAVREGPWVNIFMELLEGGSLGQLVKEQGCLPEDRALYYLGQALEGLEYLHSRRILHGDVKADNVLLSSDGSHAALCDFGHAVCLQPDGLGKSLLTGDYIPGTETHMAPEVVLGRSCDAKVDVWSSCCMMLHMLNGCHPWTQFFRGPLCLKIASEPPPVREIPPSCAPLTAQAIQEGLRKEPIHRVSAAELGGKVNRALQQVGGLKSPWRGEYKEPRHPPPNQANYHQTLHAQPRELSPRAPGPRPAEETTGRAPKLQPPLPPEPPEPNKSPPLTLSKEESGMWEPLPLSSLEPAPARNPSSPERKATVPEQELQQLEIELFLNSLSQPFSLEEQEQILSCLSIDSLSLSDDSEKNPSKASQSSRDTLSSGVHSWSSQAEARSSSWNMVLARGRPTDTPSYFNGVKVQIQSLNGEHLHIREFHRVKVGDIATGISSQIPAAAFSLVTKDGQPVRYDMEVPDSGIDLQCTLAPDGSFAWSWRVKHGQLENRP

[4] = biological target: CSNK1G2 (Homo sapiens, UniProt P78368); details: read-out: Percent Control
[5] = biological target: MAPK15 (Homo sapiens, UniProt Q8TD08); details: read-out: Percent Control
[6] = biological target: MARK1 (Homo sapiens, UniProt Q9P0L2); details: read-out: Percent Control
Sequence of MARK1 (Q9P0L2 whole entry): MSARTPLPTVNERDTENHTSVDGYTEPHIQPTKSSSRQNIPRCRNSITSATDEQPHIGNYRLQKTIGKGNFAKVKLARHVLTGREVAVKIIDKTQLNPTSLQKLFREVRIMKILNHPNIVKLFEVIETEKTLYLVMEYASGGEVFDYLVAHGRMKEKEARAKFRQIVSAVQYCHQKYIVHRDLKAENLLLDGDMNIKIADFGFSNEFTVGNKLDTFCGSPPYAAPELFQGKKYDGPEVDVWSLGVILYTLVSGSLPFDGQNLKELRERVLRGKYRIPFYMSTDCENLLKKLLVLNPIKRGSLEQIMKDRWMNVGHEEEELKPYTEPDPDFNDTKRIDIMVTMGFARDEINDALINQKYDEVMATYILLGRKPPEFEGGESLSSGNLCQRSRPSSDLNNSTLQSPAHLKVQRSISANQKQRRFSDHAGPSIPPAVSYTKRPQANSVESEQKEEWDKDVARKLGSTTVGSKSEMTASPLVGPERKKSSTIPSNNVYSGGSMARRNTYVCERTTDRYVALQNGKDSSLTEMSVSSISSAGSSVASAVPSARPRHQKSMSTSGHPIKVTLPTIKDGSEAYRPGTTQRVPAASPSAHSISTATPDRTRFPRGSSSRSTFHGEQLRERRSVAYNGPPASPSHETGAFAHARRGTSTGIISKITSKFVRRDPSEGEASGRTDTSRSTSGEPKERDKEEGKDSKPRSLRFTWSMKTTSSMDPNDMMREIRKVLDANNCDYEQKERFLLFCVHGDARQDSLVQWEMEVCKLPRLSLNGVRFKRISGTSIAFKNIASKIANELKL

[7] = biological target: DYRK2 (Homo sapiens, UniProt Q92630)
Sequence of DYRK2 (Q92630 whole entry): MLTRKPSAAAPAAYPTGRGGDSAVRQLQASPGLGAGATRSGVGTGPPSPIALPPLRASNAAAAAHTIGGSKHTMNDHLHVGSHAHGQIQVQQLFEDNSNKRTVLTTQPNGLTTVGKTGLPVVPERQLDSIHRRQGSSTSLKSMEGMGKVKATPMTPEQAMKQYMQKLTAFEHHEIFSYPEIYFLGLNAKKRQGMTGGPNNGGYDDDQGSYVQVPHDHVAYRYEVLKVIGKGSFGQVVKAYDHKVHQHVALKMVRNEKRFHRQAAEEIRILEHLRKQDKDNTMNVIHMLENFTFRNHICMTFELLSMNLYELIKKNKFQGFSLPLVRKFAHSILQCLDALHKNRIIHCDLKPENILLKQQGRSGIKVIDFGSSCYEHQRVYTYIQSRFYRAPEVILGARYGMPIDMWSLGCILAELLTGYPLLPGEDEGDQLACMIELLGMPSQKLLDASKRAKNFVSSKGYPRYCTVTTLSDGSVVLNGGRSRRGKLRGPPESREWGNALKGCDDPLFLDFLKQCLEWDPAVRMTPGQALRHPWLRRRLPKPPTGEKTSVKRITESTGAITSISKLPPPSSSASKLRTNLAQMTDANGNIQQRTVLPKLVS
Summary of the method: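 Competition binding (KINOMEscan): compound competes with an immobilised ligand for DNA-tagged kinase, and bound kinase is quantified by qPCR. 11-point 3-fold serial dilution, prepared in DMSO at 100× and diluted to 1× final.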

[8] = biological target: MARK3 (Homo sapiens, UniProt P27448); details: read-out: Percent Control
[9] = biological target: MET (Homo sapiens, UniProt P08581); details: read-out: Percent Control
Sequence of MET (P08581 whole entry): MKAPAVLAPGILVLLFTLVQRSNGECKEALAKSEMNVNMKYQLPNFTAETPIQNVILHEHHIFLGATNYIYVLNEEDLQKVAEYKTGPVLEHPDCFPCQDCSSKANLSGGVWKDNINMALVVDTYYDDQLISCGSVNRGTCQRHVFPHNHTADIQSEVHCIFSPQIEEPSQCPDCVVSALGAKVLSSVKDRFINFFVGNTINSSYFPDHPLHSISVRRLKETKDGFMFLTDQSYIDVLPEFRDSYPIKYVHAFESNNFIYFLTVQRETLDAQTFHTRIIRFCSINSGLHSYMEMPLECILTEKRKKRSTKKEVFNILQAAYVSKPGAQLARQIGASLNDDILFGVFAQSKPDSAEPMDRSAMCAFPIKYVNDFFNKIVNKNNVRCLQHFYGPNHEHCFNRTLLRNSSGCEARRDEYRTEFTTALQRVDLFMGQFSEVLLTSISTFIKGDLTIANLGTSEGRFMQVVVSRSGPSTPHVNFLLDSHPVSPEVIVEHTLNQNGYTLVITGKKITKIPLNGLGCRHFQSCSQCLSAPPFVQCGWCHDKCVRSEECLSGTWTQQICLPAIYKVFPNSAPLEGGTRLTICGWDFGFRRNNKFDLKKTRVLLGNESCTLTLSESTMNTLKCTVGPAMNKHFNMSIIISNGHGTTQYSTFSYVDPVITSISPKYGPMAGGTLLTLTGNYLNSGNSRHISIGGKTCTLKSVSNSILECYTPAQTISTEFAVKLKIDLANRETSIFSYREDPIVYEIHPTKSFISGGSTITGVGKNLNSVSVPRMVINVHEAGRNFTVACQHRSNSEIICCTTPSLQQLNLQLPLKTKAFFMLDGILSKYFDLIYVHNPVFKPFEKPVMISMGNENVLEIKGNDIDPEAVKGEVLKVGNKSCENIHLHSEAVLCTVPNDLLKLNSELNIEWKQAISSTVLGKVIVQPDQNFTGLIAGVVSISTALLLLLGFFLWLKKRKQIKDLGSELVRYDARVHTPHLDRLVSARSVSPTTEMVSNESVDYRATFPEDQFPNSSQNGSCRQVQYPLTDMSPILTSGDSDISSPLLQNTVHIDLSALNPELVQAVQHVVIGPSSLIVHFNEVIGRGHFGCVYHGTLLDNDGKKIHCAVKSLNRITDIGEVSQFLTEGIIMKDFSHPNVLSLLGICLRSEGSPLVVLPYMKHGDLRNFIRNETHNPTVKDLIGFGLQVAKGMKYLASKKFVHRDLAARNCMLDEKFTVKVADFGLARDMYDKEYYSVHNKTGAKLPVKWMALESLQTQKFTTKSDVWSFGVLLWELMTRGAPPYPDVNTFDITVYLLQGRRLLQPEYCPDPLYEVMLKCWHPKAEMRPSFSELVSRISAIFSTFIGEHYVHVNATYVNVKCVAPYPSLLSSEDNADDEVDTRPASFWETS

[10] = biological target: MAP3K3 (Homo sapiens, UniProt Q99759); details: read-out: Percent Control
Sequence of MAP3K3 (Q99759 whole entry): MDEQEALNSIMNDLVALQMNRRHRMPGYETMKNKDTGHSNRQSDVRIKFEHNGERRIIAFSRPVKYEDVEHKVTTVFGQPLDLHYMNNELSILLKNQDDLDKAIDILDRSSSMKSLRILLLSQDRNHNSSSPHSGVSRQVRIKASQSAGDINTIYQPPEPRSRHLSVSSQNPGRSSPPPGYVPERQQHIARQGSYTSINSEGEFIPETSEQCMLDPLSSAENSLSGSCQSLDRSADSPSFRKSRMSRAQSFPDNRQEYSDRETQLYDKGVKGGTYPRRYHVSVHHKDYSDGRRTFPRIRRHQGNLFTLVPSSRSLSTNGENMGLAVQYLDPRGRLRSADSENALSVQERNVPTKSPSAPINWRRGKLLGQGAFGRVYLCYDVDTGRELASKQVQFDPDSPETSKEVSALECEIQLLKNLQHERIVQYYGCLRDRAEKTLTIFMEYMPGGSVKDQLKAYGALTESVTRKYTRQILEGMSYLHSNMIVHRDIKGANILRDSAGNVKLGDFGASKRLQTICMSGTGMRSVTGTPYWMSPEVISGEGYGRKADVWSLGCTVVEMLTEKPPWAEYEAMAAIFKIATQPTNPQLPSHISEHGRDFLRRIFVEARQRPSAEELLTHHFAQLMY

[11] = biological target: ROCK1 (Homo sapiens, UniProt Q13464); details: read-out: Percent Control
[12] = biological target: PIM3 (Homo sapiens, UniProt Q86V86); details: read-out: Percent Control
[13] = biological target: PDGFRA (Homo sapiens, UniProt P16234); details: read-out: Percent Control
[14] = biological target: PIK3C2G (Homo sapiens, UniProt O75747); details: read-out: Percent Control
[15] = biological target: CDK16 (Homo sapiens, UniProt Q00536); details: read-out: Percent Control
[16] = biological target: MAP2K1 (Homo sapiens, UniProt Q02750); details: read-out: Percent Control
[17] = biological target: MAP4K3 (Homo sapiens, UniProt Q8IVH8); details: read-out: Percent Control
[18] = biological target: CSK (Homo sapiens, UniProt P41240); details: read-out: Percent Control
Sequence of CSK (P41240 whole entry): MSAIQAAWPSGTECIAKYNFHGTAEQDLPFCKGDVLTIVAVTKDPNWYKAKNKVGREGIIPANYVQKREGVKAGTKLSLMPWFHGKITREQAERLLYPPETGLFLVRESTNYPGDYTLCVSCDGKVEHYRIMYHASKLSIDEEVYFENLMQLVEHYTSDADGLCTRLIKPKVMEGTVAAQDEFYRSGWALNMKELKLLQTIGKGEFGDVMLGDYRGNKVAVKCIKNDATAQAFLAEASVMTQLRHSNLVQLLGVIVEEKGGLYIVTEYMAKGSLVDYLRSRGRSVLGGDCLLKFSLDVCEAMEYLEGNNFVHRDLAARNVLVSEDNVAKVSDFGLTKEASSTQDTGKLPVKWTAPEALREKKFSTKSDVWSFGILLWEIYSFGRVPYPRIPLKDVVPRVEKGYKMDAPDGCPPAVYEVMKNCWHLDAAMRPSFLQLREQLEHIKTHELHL

[19] = biological target: NEK1 (Homo sapiens, UniProt Q96PY6); details: read-out: Percent Control
[20] = biological target: EPHA7 (Homo sapiens, UniProt Q15375); details: read-out: Percent Control

Structure (SMILES): Oc1ccc(C2=Cc3ccc(O)cc3OC2)cc1 [compound 1, idronoxil]
- remaining binding at 10 µM [1]: 53%
- remaining binding at 10 µM [2]: 83%
- remaining binding at 10 µM [3]: 60%
- remaining binding at 10 µM [4]: 82%
- remaining binding at 10 µM [5]: 49%
- remaining binding at 10 µM [6]: 91%
- Kd [7]: 2700 nM
- remaining binding at 10 µM ([7]; read-out: Percent Control): 11%
- remaining binding at 10 µM [8]: 100%
- remaining binding at 10 µM [9]: 81%
- remaining binding at 10 µM [10]: 81%
- remaining binding at 10 µM [11]: 85%
- remaining binding at 10 µM [12]: 40%
- remaining binding at 10 µM [13]: 29%
- remaining binding at 10 µM [14]: 73%
- remaining binding at 10 µM [15]: 93%
- remaining binding at 10 µM [16]: 86%
- remaining binding at 10 µM [17]: 92%
- remaining binding at 10 µM [18]: 100%
- remaining binding at 10 µM [19]: 71%
- remaining binding at 10 µM [20]: 96%
